{
  "source": "paper PMC8783508",
  "about": "“A novel D-amino acid peptide with therapeutic potential (ISAD1) inhibits aggregation of neurotoxic disease-relevant mutant Tau and prevents Tau toxicity in vitro” (Alzheimer's Research & Therapy, 2022)",
  "key": {"N2a-Tau^RDΔK cells [1]": {"system": "N2a-Tau^RDΔK cells", "test": "MTT cytotoxicity of the peptides alone", "format": "cell-based", "settings": "25, 50, 100, 250 μM peptide, 24 h, n = 3", "method": "Cell viability was analyzed in accordance with the manufacturer’s protocol (Roche Diagnostics, Mannheim, Germany; cell proliferation kit II (MTT)). This assay is based on the cleavage of the yellow tetrazolium salt MTT into purple formazan dye by metabolic active cells. The color changes only in viable cells and can be directly quantified using a scanning multiwell spectrophotometer. In all experiments, the cells were grown as described previously. The cells (25,000 cells/well or 80% confluence) were plated on poly D-lysine-coated 96-well plates (Greiner Bio-One GmbH, Frickenhausen, Germany) for stronger attachment from overnight to 24 h at 37 °C. Fibrillized Tau^RDΔK was generated by incubating 200 μM Tau^RDΔK in BES buffer at 37 °C for 24 h in the presence of 2 mM D-peptides (Tau^RDΔK:peptide = 1:10). Successful fibrillization was verified using ThS (5 μM Tau^RDΔK, 10 μM ThS) measurement. The aggregated Tau^RDΔK (10 μM final concentration), Tau^RDΔK (10 μM) + peptide (100 μM) samples (ISAD1 and ISAD1rev), buffer only (negative control, set to 100% cell viability), and TritonX-100 (2%, cytotoxic agent, positive control) were incubated on N2a-Tau^RDΔK cells (100 μl solution) for another 24 h. The cell viability was measured in accordance with the manufacturer’s protocol.\nA MTT-based cytotoxicity assay in the presence of ISAD1 and ISAD1rev peptides. […]"}, "[2]": {"system": "N2a cells expressing Tau^RDΔK", "test": "Uptake of FAM-labeled D-peptides by confocal microscopy", "format": "cell-based", "settings": "25 μM FAM-labeled peptide, 24 h, fixed cells", "method": "In order to become potentially suitable for therapeutic development, the D-peptides should be internalized by neurons. To test this, 25 μM FAM-labeled ISAD1 or its inversed form was added to cells that express pro-aggregant mutant Tau^RDΔK for 24 h followed by cell fixation.\nFig. 7 Uptake of fluorescence-labeled D-peptides analyzed by confocal microscopy. 25 μM FAM-labeled peptides (ISAD1 and ISArev) were incubated with N2a cells expressing Tau^RDΔK for 24 h. The uptake of D-peptides was analyzed by confocal microscopy. As shown in the representative images, the peptides are mainly localized in the cytoplasm (A1, B1 Draq5 shown as red; A2 ISAD1-FAM, B2 ISAD1rev-FAM; A3, B3 merged images)"}, "N2a-Tau^RDΔK cells [3]": {"system": "N2a-Tau^RDΔK cells", "test": "LDH release with the peptides alone", "format": "cell-based", "settings": "25, 50, 100, 250 μM peptide, 24 h, n = 3", "method": "N2a cells expressing Tau^RDΔK were plated on poly D-lysine-coated 96-well plates with a density of 25,000 cells/well. At 70 to 80% confluence, the cells were treated for 24 h with various concentrations of D-peptides (25, 50, 100, and 250 μM) or Tau^RDΔK (10 μM final concentration) in the presence of ISAD1 and ISAD1rev (100 μM final concentration). The ability of D-peptides to neutralize the toxicity of Tau^RDΔK oligomers/fibrils was investigated by measuring the amount of released LDH (Roche Diagnostics, Mannheim, Germany). Therefore, 50 μL of each well was transferred to a fresh 96-well plate and 50 μL of reagent was added followed by a 30-min incubation period at RT. Finally, 50 μL of stop solution (1 N HCl) was added and absorbance was recorded at 492 nm (TECAN spectrofluorometer, Männedorf, Switzerland). Absorbance values were corrected by background values and the percentage of LDH release was calculated."}, "Tau^FL [4]": {"target": "T1, Tau^FL (Homo sapiens, UniProt P10636)", "T1 construct": "Tau^FL Full-length human Tau (441 AA); made in house", "T1 sequence (P10636 1-441 isoform P10636-8)": "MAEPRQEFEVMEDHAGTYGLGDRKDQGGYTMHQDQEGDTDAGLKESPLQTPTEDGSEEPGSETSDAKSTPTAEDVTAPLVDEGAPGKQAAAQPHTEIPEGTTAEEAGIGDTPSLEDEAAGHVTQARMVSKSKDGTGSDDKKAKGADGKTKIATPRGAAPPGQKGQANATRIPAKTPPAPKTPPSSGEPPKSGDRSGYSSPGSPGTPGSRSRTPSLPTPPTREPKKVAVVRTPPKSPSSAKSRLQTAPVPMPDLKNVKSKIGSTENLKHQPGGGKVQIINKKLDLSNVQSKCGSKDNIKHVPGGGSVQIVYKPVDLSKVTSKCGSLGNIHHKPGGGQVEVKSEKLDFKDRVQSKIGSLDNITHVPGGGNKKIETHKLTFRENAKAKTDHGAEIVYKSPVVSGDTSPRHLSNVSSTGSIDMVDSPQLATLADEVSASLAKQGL", "test": "Fibrillization of Tau^FL monitored by ThT assay", "format": "biochemical", "set-up": "key to Inhibition of Tau^FL aggregation: (+/-) indicates comparably low inhibition of Tau^FL fibrillization; (-) indicates that the peptide showed no effect on fibril formation", "settings": "L-peptides", "method": "Tau aggregation assays were performed under reducing conditions. Before the addition of heparin and peptides, a final concentration of 1 mM dithiothreitol (DTT) was added to the Tau protein solution and heated at 95 °C for 10 min. […] Final concentration of 10 μM ThT was used for monitoring fibrillization. In case of the two hexapeptides, 5 μM PHF6 and 5 μM PHF6*, respectively, without addition of the aggregation inducer heparin (16000 Da) were used for monitoring the fibrillization process. The assays were performed with 50-μl sample volume per well in a 96-well half area microtiter plate (Greiner Bio-One GmbH, Frickenhausen, Germany). The fibrillization of Tau^FL was monitored by ThT, and the relative fluorescence intensity of ThT was read out at 440 excitation/521 emission nm in a BMG microplate reader (BMG Labtech, Ortenberg, Germany)."}, "Tau^FL [5]": {"target": "T1, Tau^FL", "test": "ELISA of FAM-labeled peptide binding to Tau^FL", "settings": "FAM-labelled peptide 0.1 – 200 µM, Tau^FL 5 µg/ml, n = 3", "method": "A 96-well microtiter plate (Greiner Bio-One GmbH, Frickenhausen, Germany) was coated with 5 μg/ml Tau^FL or fibrils in coating buffer for incubation overnight at 4 °C. For investigation of the binding properties to the hexapeptide, 5 μM PHF6 was coated overnight. After three times washing with 300 μl phosphate-buffered saline with Tween20 (PBST: PBS with 0.1 % [v/v] Tween20), the plate was blocked with 3 % [w/v] BSA in PBS for 1 h at RT, followed by further washing steps. […] The plate was washed three times with PBST before 100 μl sheep anti-fluorescein isothiocyanate (FITC) HRP-conjugate (1:5000 dilution in PBST; AbD Serotec, Puchheim, Germany) was added and incubated for 1 h at RT with gentle agitation. Again, the plate was washed for three times, followed by addition of the TMB substrate. The reaction was stopped with 20 % [v/v] H2SO4 and absorbance was measured at 450 nm."}, "Tau": {"system": "Tau", "settings": "PHF6 addressing peptide; read-out: Inhibition of fibrillization of Tau (compared with the IC50 of ISAD1); cited from earlier work", "method": "Aggregation of Tau is the primary hallmark for the disease pathology in AD and other tauopathies. A significant inhibition of the aggregation by therapeutic molecules is considered beneficial. Our novel peptide ISAD1 inhibited the fibrillization of Tau^FL and pro-aggregant Tau^RDΔK (IC50 of ~3 μM) in concentrations which are typical for peptide inhibitors."}},
  "note": "Non-standard residues stand in square brackets, D forms with d. Residues, ends and D or L forms follow the SMILES beside them.",
  "data": [
    {"molecule": "CC(C)C[C@@H](NC(=O)[C@@H](CCCCN)NC(=O)[C@@H](Cc1ccccc1)NC(=O)[C@H](NC(=O)[C@H](N)CO)C(C)C)C(=O)N[C@H](CO)C(=O)N[C@H](CC(C)C)C(=O)N[C@@H](C(=O)N[C@H](CC(=O)O)C(=O)N[C@H](C)C(=O)N[C@H](C)C(=O)N[C@H](CO)C(=O)O)[C@H](C)O", "note": "[ISAD1] (H-[dS][dV][dF][dK][dL][dS][dL][dT][dD][dA][dA][dS]-OH)", "values": [
      {"measurement": "Cytotoxicity, MTT", "setting": "N2a-Tau^RDΔK cells [1]", "value": "do not induce toxic effects"},
      {"measurement": "Intracellular localisation", "setting": "[2]", "value": "accumulated in the cytosol but were excluded from the nucleus"},
      {"measurement": "Uptake by cells", "setting": "[2]", "value": "almost all cells took up the D-peptides"},
      {"measurement": "Cytotoxicity, LDH release", "setting": "N2a-Tau^RDΔK cells [3]", "value": "do not induce toxic effects"}
    ]},
    {"molecule": "SASVTSKFDALL [ISAL1sam, scrambled L-amino acid variant of ISAL1, control peptide]", "values": [
      {"measurement": "Inhibition of Tau^FL fibrillization, in words", "setting": "Tau^FL [4]; ThT assay", "value": "did not inhibit"},
      {"measurement": "Inhibition of Tau^FL aggregation", "setting": "Tau^FL [4]; ThT fibrillization assay", "value": "-"},
      {"measurement": "Binding to Tau^FL in ELISA, in words", "setting": "Tau^FL [5]", "value": "no significant binding"}
    ]},
    {"molecule": "TLKIVW", "values": [
      {"measurement": "IC50", "setting": "Tau", "value": 54.1, "unit": "µM"}
    ]}
  ]
}
